Reference: paper PMC9369794 (Molecules, 2022)

Assays:
[1] = FRAP assay for the antioxidant capacity; design: key to FRAP: slope of concentration-absorbance line divided by Trolox slope; settings: stock in THF, acetate buffer pH 3.0, 37 °C, 15 min; ratio of slopes to trolox (melatonin in EtOH)
Procedure: In the FRAP method the antioxidant reduces Fe^3+ to Fe^2+ in an acidic medium. These experiments were performed in an acetate buffer of pH 3.0, the stock solutions of the examined antioxidants were prepared in THF. The antioxidant capacities were compared to that of Trolox as a standard, just like in the ABTS assays.
A modified literature process was used. The FRAP reagent should also be prepared freshly each day. 2,4,6-Tris(2-pyridyl)-s-triazin (TPTZ) was dissolved in a 200 mM HCl solution and diluted with water to get a final 40 mM HCl and 10 mM TPTZ concentration. For the preparation of the FRAP reagent 30 mL of 20 mM FeCl3 solution and 30 mL of 10 mM TPTZ solution were mixed, and 300 mL of 300 mM acetate buffer with pH 3.0 was added (a pH lower than usual was used to avoid the precipitation of the TPTZ). The FRAP reagent was incubated at 37 °C for 15 min. 150 μL of antioxidant dissolved in THF was mixed with 2.85 mL FRAP reagent solution, and incubated at 37 °C for 15 min in dark. Measurements were carried out at each antioxidant concentration (0, 7.5; 10; 12.5; 15; 17.5 μM final concentration) in triplicate. In the 0 μM solution the antioxidant solution was substituted with acetate buffer (pH 3.0). The FRAP was determined at 600 nm: the absorbance values were plotted as a function of concentration of the sample compounds and that of Trolox for the standard reference data. The FRAP values were calculated as in the ABTS assays, i.e., the slope of the concentration-absorbance lines for the carotenoid derivatives was divided by that for the trolox.

[2] = Study of aggregation by UV-Vis spectrophotometry; assay type: physicochemical; settings: for type of aggregates formed: from THF:aqueous solutions; for change of UV spectrum with increasing ratio of PBS: starting from THF solutions
Description: It has been known for a long while that carotenoids or their derivatives can be prone to supramolecular organization in water or water-organic solvent mixtures. This behaviour is especially interesting because this higher organization can modulate or alter biological properties of carotenoids, as well [40]. A tendency to form supramolecular structures can be tested by recording the UV spectra in an organic solvent and increasing the ratio of water in the sample. […] We have some recent experience of such behaviour of carotenoid-flavonoid conjugates.
All of our adducts were tested with the method above using tetrahydrofurane (THF) or dimethylsulfoxide (DMSO) with increasing ratio of phosphate-buffered saline (PBS), which was the medium of the antioxidant measurements. […]
1. Study of Aggregation by UV-Vis Spectrophotometry
Starting from THF solutions: each conjugate was dissolved in freshly distilled THF and the solutions were diluted
either with THF or THF-PBS mixtures to obain final solutions of identical carotenoid concentration. […]
Figure S1. UV-spectra of 8’-apo-β-carotenol succinate ( 6) ( a) in THF and in THF-PBS mixtures ( 1:1 , 1:3); (b) in DMSO
Figure S2. UV-spectra of zeaxanthin bissuccinate ( 7) ( a) in THF and in THF-PBS mixtures ( 1:1 , 1:3); (b) in DMSO and
Figure S3. UV-spectra of zeaxanthin monosuccinate ( 11) ( a) in THF and in THF-PBS mixtures ( 1:1 , 1:3); (b) in DMSO […]

[3] = TEAC assay using ABTS radical; settings: 6 min, ratio of slopes to trolox (melatonin dissolved in EtOH); for TEAC from THF: stock in THF diluted with PBS pH 7.4, 37 °C
Procedure: This method uses a redox reaction between ABTS^•+ radical cation and the examined antioxidants, which act as the reducing agents. […] As the carotenoids and the conjugates are poorly soluble in water, they were dissolved first either in small amounts of freshly distilled tetrahydrofuran (THF) or in dimethylsulfoxide (DMSO), and these stock solutions were diluted with phosphate-buffered saline (PBS) to the final nominal concentration.
The TEAC values were determined in isotonic phosphate buffer of pH 7.4. The buffer solution was made by dissolving 9.55 g of DPBS powder in distilled water to form 1L of solution (composition: 0.138 M NaCl, 0.0027 M KCl, 0.0081 M Na2HPO4, 0.0015 M KH2PO4). The assay was performed according to a literature process with slight modifications. The ABTS^•+ radical cation was produced by reacting 7 mM 2,2′-azino-bis(3-ethylbenzothiazoline-6-sulfonic acid) and 2.45 mM potassium persulfate in water. The stock ABTS^•+ solution was prepared 12–16 h before the experiments, and stored at room temperature in dark. The absorbance of the ABTS^•+ solution was set to 0.70 ± 0.05 at 734 nm by a ca. 100-fold dilution with phosphate-buffered saline (PBS). […] The stock solutions were diluted with PBS such that equal amounts of the diluted solutions were added to the ABTS^•+ reagent to obtain final antioxidants concentrations of 0.3125, 0.625, 1.25, 2.50, 3.75, 5 μM, respectively. In the blank (0 μM), the solutions of the antioxidants were substituted with THF or DMSO.
The antioxidants were incubated with ABTS^•+ solution at 37 °C for 6 min. During the reaction of ABTS^•+ with the antioxidants the absorbance of the solution decreases. The percentage inhibition of absorbance at 734 nm was calculated as (A0 − Aantioxidant)/A0, where A0 is the absorbance of the ABTS^•+ solution and Aantioxidant is the absorbance measured after the addition of the antioxidant. The determinations were carried out at each concentration in triplicate. The calculated values were plotted against the final concentration of the antioxidants. The slopes of the curves were compared with that for trolox, the TEAC value is the ratio of the slopes for the antioxidant and for trolox.

[4] = Hydrodynamic diameter and colloidal stability of aggregates by dynamic light scattering; assay type: physicochemical; settings: for mean size (hydrodynamic diameter) / zeta potential: 37 °C; for PDI: sd^2/mean size^2
Procedure: In contrary, all spectra gave a hypsochromic shift and loss of fine-structure when the DMSO solutions were diluted with PBS, which refers to the formation of H-type (card-pack) aggregates (Figures S1–S12). Since DMSO-containing aqueous systems are more suitable for biological studies, we examined these solution by dynamic light scattering (DLS) spectroscopy to gain more information about the particles. The concentrations of the examined solutions were the same as used in the ABTS/TEAC measurements (0.3125–5.00 μM, see next section).
Size determination of aggregates and the colloidal stability of the sample dispersions were determined by dynamic light scattering measurements, where the hydrodynamic diameter of particles, and zeta potential values were collected. The number-weighted size distribution indicated one main peak in each case, the polydispersity index (PDI) was calculated as sd^2/mean size^2. For the particle size analysis Malvern Zetasizer Nano S instrument and for the zeta potential determination Malvern Zetasizer Nano Z instrument were used (Malvern Panalytical Ltd., Great Malvern, Worcestershire, UK). The measurements were carried out in autocorrelation mode, and the following parameters were kept constant: scattering angle 173°, attenuator 11 and its factor 0.0146, measurement position 4.65 mm. The concentrations of sample dispersions were between 0.3125 and 5 µM. The dispersion medium was PBS. Each samples was examined after 6 min incubation period at 37 °C.

[5] = 0.3125 μM in PBS from DMSO stock
[6] = 0.625 μM in PBS from DMSO stock

SMILES | melting point | FRAP [1] | type of aggregates formed [2] | change of UV spectrum with increasing ratio of PBS [2] | TEAC from THF [3] | mean size (hydrodynamic diameter) [4, 5] | zeta potential [4, 5] | mean size (hydrodynamic diameter) [4, 6] | zeta potential [4, 6] | mean size (hydrodynamic diameter) ([4]; 1.25 μM in PBS from DMSO stock) | zeta potential ([4]; 1.25 μM in PBS from DMSO stock) | mean size (hydrodynamic diameter) ([4]; 2.5 μM in PBS from DMSO stock) | zeta potential ([4]; 2.5 μM in PBS from DMSO stock) | PDI ([4]; 2.5 μM in PBS) | mean size (hydrodynamic diameter) ([4]; 3.75 μM in PBS from DMSO stock) | zeta potential ([4]; 3.75 μM in PBS from DMSO stock) | PDI ([4]; 3.75 μM in PBS) | mean size (hydrodynamic diameter) ([4]; 5 μM in PBS from DMSO stock) | zeta potential ([4]; 5 μM in PBS from DMSO stock) | PDI ([4]; 5 μM in PBS) | other results
COc1ccc2[nH]cc(CCNC(=O)CNC(=O)CCC(=O)O[C@@H]3CC(C)=C(/C=C/C(C)=C/C=C/C(C)=C/C=C/C=C(C)/C=C/C=C(C)/C=C/C4=C(C)C[C@@H](OC(=O)CCC(=O)NCC(=O)NCCc5c[nH]c6ccc(OC)cc56)CC4(C)C)C(C)(C)C3)c2c1 [Compound 14, Zeaxanthin-bismelatonin conjugate] | 149 to 150 °C | 0.206 | J-type (head-to-tail) aggregates | bathochromic shift | 2.080 | too large for DLS | −0.7 mV | too large for DLS | −0.7 mV | too large for DLS | −1.0 mV | 137.50 nm | −0.4 mV | 0.0147 | 91.77 nm | −0.2 mV | 0.0108 | 705.10 nm | 0.0 mV | 0.0659 | TEAC from DMSO ([3]; stock in DMSO diluted with PBS pH 7.4, 37 °C): 2.79
COc1ccc2[nH]cc(CCNC(=O)CNC(=O)CCC(=O)O[C@@H]3CC(C)=C(/C=C/C(C)=C/C=C/C(C)=C/C=C/C=C(C)/C=C/C=C(C)/C=C/C4=C(C)CCCC4(C)C)C(C)(C)C3)c2c1 [Compound 15, Cryptoxanthin-melatonin conjugate] | 153 to 154 °C | 0.154 | J-type (head-to-tail) aggregates | bathochromic shift | 1.777 | 29.79 nm | −13.4 mV | 31.22 nm | −23.5 mV | 74.91 nm | −20.8 mV | 305.10 nm | −20.4 mV | 0.1649 | 826.80 nm | −11.8 mV | 0.0840 | 615.10 nm | −15.7 mV | 0.0992 | PDI ([4]; 0.3125 μM in PBS): 0.0356; PDI ([4]; 0.625 μM in PBS): 0.1230; PDI ([4]; 1.25 μM in PBS): 0.1051
